This note sets out measurements from ChEMBL document CHEMBL1139109, “Further studies on the binding of N1-substituted tryptamines at h5-HT6 receptors” (Bioorg Med Chem Lett, 2007).

This assay deals with 5-hydroxytryptamine receptor 6 (Homo sapiens, UniProt P50406). Put plainly: Displacement of [3H] LSD from human 5HT6 receptor expressed in HEK293 cells. It counts as cell-based. In general terms: Displacement assays read how much labelled ligand stays bound in the presence of the test substance.
Chain of 5-hydroxytryptamine receptor 6 (P50406 whole entry): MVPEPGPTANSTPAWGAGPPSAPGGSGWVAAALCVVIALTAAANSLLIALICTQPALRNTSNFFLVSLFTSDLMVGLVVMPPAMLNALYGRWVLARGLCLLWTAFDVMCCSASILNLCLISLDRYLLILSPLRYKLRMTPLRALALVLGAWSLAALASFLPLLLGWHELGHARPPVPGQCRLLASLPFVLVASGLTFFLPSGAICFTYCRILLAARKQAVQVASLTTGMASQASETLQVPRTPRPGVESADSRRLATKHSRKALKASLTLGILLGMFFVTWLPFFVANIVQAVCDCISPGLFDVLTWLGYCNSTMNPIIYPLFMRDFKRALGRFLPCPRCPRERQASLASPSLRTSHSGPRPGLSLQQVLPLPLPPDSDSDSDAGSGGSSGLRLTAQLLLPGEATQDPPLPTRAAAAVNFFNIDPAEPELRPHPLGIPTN

What is called Ki is a dissociation constant, usually derived from enzyme kinetics or from competition with a known ligand. As for `Nc1ccc(Cn2ccc3ccccc32)cc1`, the affinity corresponds to a Ki of 8200 nM.

As to `CN(C)CCc1cn(Cc2ccc(Cl)cc2)c2ccccc12`, the Ki was 20 nM.

`COc1ccc(S(=O)(=O)n2cc(CCN(C)C)c3ccccc32)cc1`: the inhibition constant Ki amounted to 13 nM.

On to `CN(C)CCc1cn(Cc2ccc(N)cc2)c2ccccc12`, for which the affinity corresponds to a Ki of 44 nM.

In turn, `COc1ccc(Cn2cc(CCN(C)C)c3ccccc32)cc1` displayed a Ki of 132 nM.

`CCCCCS(=O)(=O)n1cc(CCN(C)C)c2ccccc21` yielded a Ki of 220 nM.

Regarding `Nc1ccc(Cn2c3c(c4ccccc42)CCCC3)cc1`, the affinity corresponds to a Ki of 6000 nM.

With `CN(C)CC1CCCc2c1c1ccccc1n2Cc1ccccc1` (stereo not given), the affinity, expressed as Ki, was 136 nM.

Turning to `CN(C)CCc1cn(S(=O)(=O)c2ccc(C(F)(F)F)cc2)c2ccccc12`, the inhibition constant (Ki) amounted to 1.9 nM.

`CCCCS(=O)(=O)n1cc(CCN(C)C)c2ccccc21` gave a Ki of 135 nM.

Take `Nc1ccc(S(=O)(=O)n2c3c(c4ccccc42)CCCC3)cc1`: the Ki came to 29 nM.

Turning to `Cc1ccc(S(=O)(=O)n2cc(CCN(C)C)c3ccccc32)cc1`, the affinity, expressed as Ki, was 2.5 nM.

In turn, `CN(C)CC1CCCc2c1c1ccccc1n2S(=O)(=O)c1ccccc1` (stereo not given) gave a Ki of 1.5 nM.

`CCCS(=O)(=O)n1cc(CCN(C)C)c2ccccc21` displayed an inhibition constant (Ki) of 280 nM.

In turn, `CN(C)CCc1cn(Cc2ccc(C(F)(F)F)cc2)c2ccccc12` showed a Ki of 445 nM.

On to `CN(C)CCc1cn(S(=O)(=O)c2ccc(Cl)cc2)c2ccccc12`, for which affinity was put at a Ki of 94 nM.

`CN(C)CCc1cn(S(=O)(=O)C2CCCCC2)c2ccccc12` showed a Ki of 210 nM.

Regarding `Cc1ccc(Cn2cc(CCN(C)C)c3ccccc32)cc1`, the inhibition constant (Ki) turned out to be 29 nM.

As to `CCCCCCCCS(=O)(=O)n1cc(CCN(C)C)c2ccccc21`, the affinity, expressed as Ki, was 440 nM.

In turn, `CC(C)S(=O)(=O)n1cc(CCN(C)C)c2ccccc21` came in with a Ki of 590 nM.
